Experimental data reported in patent US20080275028A1 (priority 2004, published 2008).

Target: T1, alpha7 nicotinic acetylcholine receptor (Rattus norvegicus, UniProt Q05941)
T1 construct: expressed in transfected cells
Assay: Functional FLIPR assay (calcium), alpha7 nAChR stably expressed in GH4C1 cells
Format: cell-based
Details: agonist, concentration range 0.001 to 30 microM
Text: Rat GH4C1 cells were then transfected with the rat receptor, cloned and analyzed for functional alpha7 nicotinic receptor expression employing a FLIPR assay to measure changes in intracellular calcium concentrations.
The FLIPR system allows the measurements of real time Ca^2+-concentration changes in living cells using a Ca^2+ sensitive fluorescence dye (such as Fluo4). This instrument enables the screening for agonists and antagonists for alpha 7 nAChR channels stably expressed in GH4C1cells.
GH4C1 cells stably transfected with rat-alpha7-nAChR (see above) were used. These cells are poorly adherent and therefore pretreatment of flasks and plates with poly-D-lysine was carried out. Cells are grown in 150 cm^2 T-flasks, filled with 30 ml of medium at 37° C. and 5% CO2.
EC50 and IC50 values were calculated using the IDBS XLfit4.1 software package employing a sigmoidal concentration-response (variable slope) equation:
Y=Bottom+((Top-Bottom)/(1+((EC50/X) ̂ HillSlope))
The compounds were tested using the functional FLIPR primary screening assay employing the stable recombinant GH4C1 cell line expressing the alpha7 nAChR. Hits identified were validated further by generation of concentration-response curves.

T1 sequence (Q05941 23-502): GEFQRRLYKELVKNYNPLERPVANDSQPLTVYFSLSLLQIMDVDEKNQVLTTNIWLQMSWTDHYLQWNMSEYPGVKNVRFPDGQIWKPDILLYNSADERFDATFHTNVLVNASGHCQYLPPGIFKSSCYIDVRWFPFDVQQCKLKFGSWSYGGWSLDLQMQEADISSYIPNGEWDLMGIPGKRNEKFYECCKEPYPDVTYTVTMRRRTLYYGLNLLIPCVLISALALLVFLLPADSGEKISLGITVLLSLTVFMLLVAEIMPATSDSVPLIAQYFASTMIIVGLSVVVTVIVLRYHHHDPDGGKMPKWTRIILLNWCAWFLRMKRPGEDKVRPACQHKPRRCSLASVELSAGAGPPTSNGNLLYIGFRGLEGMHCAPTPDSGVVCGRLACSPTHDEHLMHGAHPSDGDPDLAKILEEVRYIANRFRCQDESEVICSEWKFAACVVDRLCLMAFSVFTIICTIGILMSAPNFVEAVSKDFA

C[N+]1(C)CCN(c2ccccc2)CC1 [DMPP]
EC50: 0.98 ± 0.47 µM
